Reference: patent publication US9980957B2, “Histone deacetylase (HDAC) inhibitors for the treatment of cancer” (TopoTarget UK Limited, priority 2005, dated 2018)
Read-outs that look alike come from different tables or passages of the source.

What was measured:
[1] = test system: AMO-1 plasmacytoma cell line; test: CellTiter-Glo cell viability assay; type: cell-based; settings: Homo sapiens, AMO1, 72 h, read-out: PXD-101 IC50
Method: (§1) Percent activity (% activity), was calculated for each test compound as: % activity={(S^c−B)/(S^o−B)}×100
(§2) wherein S^c denotes signal measured in the presence of the compound being tested, S^o denotes signal measured in the absence of the compound being tested, and B denotes the background signal measured in blank wells containing medium only. The IC50 corresponds to the drug concentration which achieves 50% activity of untreated control cultures. IC50 values were calculated using the software package Prism 3.0 (GraphPad Software Inc., San Diego, Calif.) with variable slope option.
(§3) This example reports the effects of PXD-101 on six distinct multiple myeloma cell lines, three plasma cell leukemia cell lines and one plasmacytoma. The cells were incubated with PXD-101 for 72 hours in vitro, and their viability measured by the CellTiter-Glo assay.

[2] = test system: EJM multiple myeloma cell line; test: CellTiter-Glo cell viability assay; type: cell-based; settings: Homo sapiens, 72 h, read-out: PXD-101 IC50
Method: as §1, §2, §3

[3] = test system: KARPAS-620 plasma cell leukemia cell line; test: CellTiter-Glo cell viability assay; type: cell-based; settings: KARPAS-620, plasma cell leukemia t(8;14)(q24;q32); 72 h; read-out: PXD-101 IC50
Method: as §1, §2, §3

[4] = test system: KMS-12-BM multiple myeloma cell line; test: CellTiter-Glo cell viability assay; type: cell-based; settings: Homo sapiens, MM t(11;14)(q13;q32), 72 h, read-out: PXD-101 IC50
Method: as §1, §2, §3

[5] = test system: L-363 plasma cell leukemia cell line; test: CellTiter-Glo cell viability assay; type: cell-based; settings: Homo sapiens, 72 h, read-out: PXD-101 IC50
Method: as §1, §2, §3

[6] = test system: LP-1 multiple myeloma cell line; test: CellTiter-Glo cell viability assay; type: cell-based; settings: Homo sapiens, LP-1, MM t(4;14)(p16;q32), 72 h, read-out: PXD-101 IC50
Method: as §1, §2, §3

[7] = test system: OPM-2 multiple myeloma cell line; test: CellTiter-Glo cell viability assay; type: cell-based; settings: Homo sapiens; OPM-2, MM t(4;14)(p16;q32); 72 h; read-out: PXD-101 IC50
Method: as §1, §2, §3

[8] = test system: RPMI-8226 multiple myeloma cell line; test: CellTiter-Glo cell viability assay; type: cell-based; settings: Homo sapiens, 72 h, read-out: PXD-101 IC50
Method: as §1, §2, §3

[9] = test system: SK-MM-2 plasma cell leukemia cell line; test: CellTiter-Glo cell viability assay; type: cell-based; settings: Homo sapiens; SK-MM-2, plasma cell leukemia t(11;14)(q13;q32); 72 h; read-out: PXD-101 IC50
Method: as §1, §2, §3

[10] = test system: U266 multiple myeloma cell line; test: CellTiter-Glo cell viability assay; type: cell-based; settings: Homo sapiens, U-266, 72 h, read-out: PXD-101 IC50
Method: as §1, §2, §3

[11] = test system: six multiple myeloma cell lines, three plasma cell leukemia cell lines and one plasmacytoma; test: CellTiter-Glo cell viability assay, all ten cell lines; type: cell-based; settings: 72 h
Method: as §1, §2, §3

[12] = test system: diverse tumor cell lines; test: Proliferation of diverse tumor cell lines; type: cell-based
[13] = Phase 1 dose escalation study, safety; type: in vivo, human
Method: (§4) A Phase 1 open label, dose escalation, safety, pharmacokinetics (PK), and pharmacodynamics (PD) study of PXD-101 was conducted in patients with advanced cancers.
(§5) PXD-101 was administered as a 30-minute intravenous (IV) infusion daily for 5-days every 3-weeks. In a subgroup of patients, PXD-101 was administered orally once, twice or thrice on day 1 only, in course 2 or 3. Acetylation of histones extracted from peripheral blood mononuclear cells (PBMNC) was measured by Western blotting. The PK/PD profile of intravenous and oral PXD-101 was evaluated.
The results of this study are as follows: 34 patients (median age 58 years, range 28-74; 19 male, all ECOG PS≤2) have been treated with a total of 103 cycles of PXD-101 (median 2; range 1 to 13) at 6 dose levels: 150 mg/m^2 (4 patients), 300 mg/m^2 (4 patients), 600 mg/m^2 (6 patients), 900 mg/m^2 (3 patients), 1000 mg/m^2 (12 patients) and 1200 mg/m^2 (5 patients).

[14] = Phase 1 dose escalation study, pharmacokinetics; type: in vivo, human; settings: for half-life / Cmax / bioavailability: human, in vivo
Method: as §4, §5

[15] = test system: histone H4 acetylation in peripheral blood mononuclear cells; test: Phase 1 study, pharmacodynamics: acetylation of histones from PBMNC by Western blotting; type: in vivo, human
Method: as §5

[16] = test system: advanced cancers; test: Phase 1 study, tumor reduction in patients with advanced cancers; type: in vivo, human; settings: a patient with epithelial mediastinal thymoma
Method: A Phase 1 open label, dose escalation, safety, pharmacokinetics (PK), and pharmacodynamics (PD) study of PXD-101 was conducted in patients with advanced cancers. PXD-101 was administered as a 30-minute intravenous (IV) infusion daily for 5-days every 3-weeks. In a subgroup of patients, PXD-101 was administered orally once, twice or thrice on day 1 only, in course 2 or 3. Acetylation of histones extracted from peripheral blood mononuclear cells (PBMNC) was measured by Western blotting. The PK/PD profile of intravenous and oral PXD-101 was evaluated.

[17] = test system: A2780 ovarian cancer subcutaneous xenograft; test: A2780 ovarian cancer subcutaneous xenograft model; type: in vivo; settings: AVASTIN 5 mg/kg on day 4, mice
Method: The object of this study was to investigate the tumour growth inhibitory effect of AVASTIN® (bevacizumab) in an A2780 ovarian cancer subcutaneous xenograft model. Mice were treated on day 4 with AVASTIN® (bevacizumab) (5 mg/kg). The chemosensitising effect of PXD-101 in combination with AVASTIN® (bevacizumab) was also investigated.

O=C(/C=C/c1cccc(S(=O)(=O)Nc2ccccc2)c1)NO [PXD-101]
IC50 [1]: 29 nM | IC50 [2]: 123 nM | IC50 [3]: 112 nM | IC50 [4]: 88 nM | IC50 [5]: 100 nM | IC50 [6]: 45 nM | IC50 [7]: 106 nM | IC50 [8]: 196 nM | IC50 [9]: 28 nM | IC50 [10]: 141 nM | IC50 ([11]; mean of ten cell lines, read-out: IC50, mean of the ten cell lines): 97 nM | IC50 ([11]; ten cell lines, read-out: IC50, range over the ten cell lines): 28 to 196 nM | IC50 [12]: 80 to 2430 nM | Patients with dose limiting toxicity ([13]; both, human, in vivo, iv, 5 days every 3 weeks): 3 patients | Most commonly reported other adverse events ([13]; in vivo): fatigue, nausea, vomiting, constipation, diarrhea and injection site reactions | Dose limiting toxicity ([13]; in vivo, iv): short-lived atrial fibrillation | Tolerability, in words ([13]; in vivo, iv): well tolerated | Tolerability, in words ([13]; in vivo, po): well tolerated | MTD ([13]; once daily for 5-days 30-minute IV infusion): 1000 mg/m^2 | Accumulation, oral ([14]; 8-hour interval dosing): tendency towards accumulation | Accumulation, oral ([14]; 12-hour interval dosing): no accumulation | half-life ([14]; intravenous, one patient outside the range, read-out: t1/2, one patient (converted)): 1.8 h | half-life ([14]; iv, patients, IV infusion, read-out: Terminal elimination half-life): 0.5 to 1 h | Cmax ([14]; iv, reached at the end of the infusion): 6500 to 55800 ng/mL | Cmax ([14]; po, 1000 mg/m2, b.i.d. 1000 mg/m^2 oral on a single day, 5 patients): 1100 to 2900 ng/mL | bioavailability ([14]; po, 1000 mg/m2, b.i.d. 1000 mg/m^2 oral on a single day, 5 patients, SD 12.5%, read-out: Mean oral bioavailability): 42.8% | half-life ([14]; po, 1000 mg/m2, b.i.d. 1000 mg/m^2 oral on a single day, 5 patients, read-out: t1/2): 1.5 to 2 h | Cmax ([14]; po, 1000 mg/m2, t.i.d. 1000 mg/m^2 oral on a single day, 2 patients): 1300 to 1800 ng/mL | half-life ([14]; po, 1000 mg/m2, t.i.d. 1000 mg/m^2 oral on a single day, 2 patients, read-out: t1/2): 2 to 2.6 h | bioavailability ([14]; po, oral single dose, read-out: Mean single dose oral bioavailability): 33% | Oral bioavailability, in words ([14]; patients): orally bioavailable | PK dose dependence, in words ([14]; patients, IV): dose-proportional | Accumulation on repeated IV dosing ([14]; repeated IV dosing): no drug accumulation | Duration of histone H4 hyperacetylation ([15]; IV infusion, dose-dependent): 4 to 24 h | Duration of histone acetylation above baseline ([15]; oral 1000 mg/m^2): 5 to 10 h | Histone acetylation above baseline ([15]; oral 1000 mg/m^2): 40-50% | Reduction of mediastinal disease [16]: 70% | Time on the study [16]: over 1 year

AVASTIN® (bevacizumab): recombinant humanized antibody to Vascular Endothelial Growth Factor (VEGF)
Tumour growth inhibition, in words [17]: significant growth inhibition
